Results: US11001590B2, “Pyrazolopyrimidine derivatives” (BAYER ANIMAL HEALTH GMBH, priority 2016, dated 2021)

How the values were obtained:
[1] = system: Dirofilaria immitis third-stage larvae; experiment: In vitro assay 4: Dirofilaria immitis (DIROIM L4), motility of larvae; conditions: 72 h
C. elegans Slo-1a = C. elegans Slo-1a (Caenorhabditis elegans, UniProt Q95V25); experiment: In vitro assay 1: C. elegans Slo-1a, action at a recombinant C. elegans CHO cell line (membrane potential measurement)
C. elegans Slo-1a, sequence (Q95V25 whole entry): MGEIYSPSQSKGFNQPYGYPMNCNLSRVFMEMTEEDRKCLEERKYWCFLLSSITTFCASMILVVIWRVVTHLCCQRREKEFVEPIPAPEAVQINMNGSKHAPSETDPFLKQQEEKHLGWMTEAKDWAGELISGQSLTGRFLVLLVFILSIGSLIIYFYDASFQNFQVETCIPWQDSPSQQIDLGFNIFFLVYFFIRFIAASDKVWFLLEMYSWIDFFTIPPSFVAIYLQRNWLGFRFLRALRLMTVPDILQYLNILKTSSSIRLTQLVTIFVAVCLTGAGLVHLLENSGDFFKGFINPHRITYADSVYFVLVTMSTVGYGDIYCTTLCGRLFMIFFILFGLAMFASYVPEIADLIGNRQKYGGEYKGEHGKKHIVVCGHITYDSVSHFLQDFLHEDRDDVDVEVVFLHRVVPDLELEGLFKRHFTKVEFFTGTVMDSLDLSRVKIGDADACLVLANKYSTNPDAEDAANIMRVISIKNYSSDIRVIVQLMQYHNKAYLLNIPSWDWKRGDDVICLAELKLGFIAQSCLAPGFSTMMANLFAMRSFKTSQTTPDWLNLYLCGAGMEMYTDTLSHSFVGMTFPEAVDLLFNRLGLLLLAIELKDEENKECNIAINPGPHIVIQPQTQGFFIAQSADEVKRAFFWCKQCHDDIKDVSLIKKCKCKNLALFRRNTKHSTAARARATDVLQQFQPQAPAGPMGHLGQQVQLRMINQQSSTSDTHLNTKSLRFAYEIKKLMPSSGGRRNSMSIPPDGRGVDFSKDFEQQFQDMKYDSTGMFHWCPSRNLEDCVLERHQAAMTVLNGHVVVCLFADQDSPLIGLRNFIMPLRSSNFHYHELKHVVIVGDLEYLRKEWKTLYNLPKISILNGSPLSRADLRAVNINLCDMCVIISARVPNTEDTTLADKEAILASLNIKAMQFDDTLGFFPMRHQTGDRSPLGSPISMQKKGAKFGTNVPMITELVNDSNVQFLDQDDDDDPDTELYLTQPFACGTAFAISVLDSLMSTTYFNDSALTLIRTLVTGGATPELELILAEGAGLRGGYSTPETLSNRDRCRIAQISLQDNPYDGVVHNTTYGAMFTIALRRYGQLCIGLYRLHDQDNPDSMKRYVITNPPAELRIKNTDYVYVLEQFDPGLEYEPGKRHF

[2] = log P by HPLC on reversed phase columns (Method L0; [a] acidic, [b] neutral range)
Method: Calibration was done with straight-chain alkan-2-ones (with 3 to 16 carbon atoms) with known log P values (measurement of log P values using retention times with linear interpolation between successive alkanones). Lambda-max-values were determined using UV-spectra from 200 nm to 400 nm and the peak values of the chromatographic signals.

[3] = system: Dirofilaria immitis microfilariae; experiment: In vitro assay 3: Dirofilaria immitis microfilariae (DIROIM L1), motility; conditions: 72 h, reduction of motility vs negative control, 72 h incubation
[4] = system: Litomosoides sigmodontis third-stage larvae; experiment: In vitro assay 7: Litomosoides sigmodontis L3 (LTMOSI), motility; conditions: 72 h, reduction of motility vs negative control, 72 h incubation

| SMILES | EC50 [1] | EC50 (C. elegans Slo-1a) | chromatographic logP [2] | EC50 [3] | EC50 [4] |
| --- | --- | --- | --- | --- | --- |
| Cc1nn2c(C(C)C)c(C(=O)N[C@H]3CCc4ccccc43)cnc2c1-c1cccc(C(F)(F)F)c1 [Example 4] | < 1 µg/mL | 31.6 nM | 5.3 | < 1 µg/mL | – |
| Cc1nn2c(C(C)C)c(C(=O)N[C@H]3CCCc4ccccc43)cnc2c1-c1cccc(Cl)c1 [Example 45] | < 1 µg/mL | 50.1 nM | 5.51 | < 0.1 µg/mL | < 0.1 µg/mL |
| CC(C)c1c(C(=O)N[C@H]2CCc3ccccc32)cnc2c(-c3ccccc3Cl)c(Cl)nn12 [Example 79] | < 0.1 µg/mL | 20 nM | 4.79 | < 0.1 µg/mL | < 0.1 µg/mL |
| Cc1nn2c(C(C)C)c(C(=O)N[C@H]3CCc4ccccc43)cnc2c1-c1cccc(F)c1Cl [Example 165] | < 0.1 µg/mL | 2 nM | 4.74 | < 0.1 µg/mL | – |
| Cc1nn2c(C(C)C)c(C(=O)N[C@H]3CCCc4ccccc43)cnc2c1-c1cc(Cl)ccc1Cl [Example 172] | < 0.1 µg/mL | 10 nM | 5.64 | < 0.1 µg/mL | – |
| Cc1nn2c(C(C)C)c(C(=O)N[C@H]3CCc4ccccc43)cnc2c1-c1cccc(Cl)c1 [Example 287] | – | 15.8 nM | 5.19 | < 1 µg/mL | < 0.1 µg/mL |
| COc1cccc(-c2c(C)nn3c(C(C)C)c(C(=O)N[C@H]4CCc5ccccc54)cnc23)c1 [Example 289] | – | 15.8 nM | 4.51 | < 1 µg/mL | < 0.1 µg/mL |
| Cc1nn2c(C(C)C)c(C(=O)N[C@H]3CCc4ccccc43)cnc2c1-c1cccc(F)c1 [Example 290, (S)—N-(2,3-Dihydro-1H-inden-1-yl)-3-(3-fluorophenyl)-7-isopropyl-2-methylpyrazolo[1,5-a]pyrimidine-6-carboxamide] | – | 15.8 nM | 4.73 | < 1 µg/mL | < 1 µg/mL |
| COCc1cccc(-c2c(C)nn3c(C(C)C)c(C(=O)N[C@H]4CCCc5ccccc54)cnc23)c1 [Example 344] | < 1 µg/mL | 7.94 nM | 4.74 | < 1 µg/mL | – |
| Cc1nn2c(C3CC3)c(C(=O)N[C@H]3CCc4ccccc43)cnc2c1-c1cccc(N(C)C)c1 [Example 348] | < 1 µg/mL | 3.98 nM | 2.98 | < 1 µg/mL | – |
| COCc1cccc(-c2c(C)nn3c(C4CC4)c(C(=O)N[C@H]4CCc5ccccc54)cnc23)c1 [Example 350] | < 1 µg/mL | 10 nM | 3.65 | < 0.1 µg/mL | – |
| Cc1nn2c(C3CC3)c(C(=O)N[C@H]3CCc4ccccc43)cnc2c1-c1ccc(F)c(F)c1 [Example 358] | < 1 µg/mL | 12.6 nM | 4.1 | < 1 µg/mL | – |
| Cc1nn2c(C(C)C)c(C(=O)N[C@H]3CCc4ccccc43)cnc2c1-c1cccc(N2CC(F)(F)C2)c1 [Example 364] | < 1 µg/mL | 10 nM | 4.89 | < 1 µg/mL | – |
| COCc1cccc(-c2c(C(F)F)nn3c(C(C)C)c(C(=O)N[C@H]4CCc5ccccc54)cnc23)c1 [Example 430] | – | 15.8 nM | 4.36 | < 1 µg/mL | – |
| CC(C)c1c(C(=O)N[C@H]2CCc3ccccc32)cnc2c(-c3cccc(OC(F)(F)F)c3)c(C(F)F)nn12 [Example 431] | – | 6.31 nM | 5.18 | < 10 µg/mL | – |
| CC(C)c1c(C(=O)N[C@H]2CCc3ccccc32)cnc2c(-c3cccc(C(F)(F)F)c3)c(C(F)F)nn12 [Example 433] | – | 10 nM | 5.03 | < 10 µg/mL | – |
| CC(C)c1c(C(=O)N[C@H]2CCc3ccccc32)cnc2c(-c3c(F)cccc3F)c(C(F)F)nn12 [Example 434] | < 0.1 µg/mL | 7.94 nM | 4.23 | < 0.1 µg/mL | – |
| CC(C)c1c(C(=O)N[C@H]2CCc3ccccc32)cnc2c(-c3ccccc3Cl)c(C(F)F)nn12 [Example 435] | – | 25.1 nM | 4.43 | < 0.1 µg/mL | – |
| COc1cccc(-c2c(C)nn3c(C4CC4)c(C(=O)N[C@H]4CCCc5ccccc54)cnc23)c1 [Example 439] | – | 6.31 nM | 4.03 | < 0.1 µg/mL | – |
| Cc1nn2c(C3CC3)c(C(=O)N[C@H]3CCc4ccccc43)cnc2c1-c1cccc(N2CC(F)(F)C2)c1 [Example 441] | – | 10 nM | 4.16 | < 1 µg/mL | – |
| Cc1nn2c(C(C)C)c(C(=O)N[C@H]3CCc4ccccc43)cnc2c1-c1cccc(S(=O)(=O)C2CC2)c1 [Example 443] | – | 50.1 nM | 3.99 | < 10 µg/mL | – |
| Cc1nn2c(C(C)C)c(C(=O)N[C@H]3CCOc4ccccc43)cnc2c1-c1cccc(N2CC(C#N)C2)c1 [Example 444] | – | 15.8 nM | 3.91 | < 10 µg/mL | – |
| Cc1nn2c(C3CC3)c(C(=O)N[C@H]3CCOc4ccccc43)cnc2c1-c1c(F)cccc1F [Example 445] | < 0.1 µg/mL | 2 nM | 3.43 | < 0.1 µg/mL | – |

| SMILES | EC50 [1] | EC50 (C. elegans Slo-1a) | chromatographic logP [2] | EC50 [3] | EC50 [4] |
| --- | --- | --- | --- | --- | --- |
| Cc1nn2c(C3CC3)c(C(=O)N[C@H]3CCc4ccccc43)cnc2c1-c1cnn(CC2CC2)c1 [Example 446] | – | 12.6 nM | 3.15 | < 10 µg/mL | – |
| Cc1nn2c(C(C)C)c(C(=O)N[C@H]3CCc4ccccc43)cnc2c1-n1cc(Cl)cn1 [Example 447] | – | 398 nM | 4.13 | < 10 µg/mL | – |
| Cc1nn2c(C3CC3)c(C(=O)N[C@H]3CCOc4ccccc43)cnc2c1-c1cc(F)ccc1F [Example 448] | < 0.1 µg/mL | 3.16 nM | 3.61 | < 0.1 µg/mL | – |
| Cc1nn2c(C3CC3)c(C(=O)N[C@H]3CCOc4ccccc43)cnc2c1-c1cccc(C(F)(F)F)c1 [Example 449] | – | 6.31 nM | 4.31 | < 0.1 µg/mL | – |
| Cc1nn2c(C3CC3)c(C(=O)N[C@H]3CCOc4ccccc43)cnc2c1-c1ccccc1F [Example 450] | < 0.1 µg/mL | 3.16 nM | 3.45 | < 0.1 µg/mL | – |
| COc1cccc(-c2c(C)nn3c(C4CC4)c(C(=O)N[C@H]4CCOc5ccccc54)cnc23)c1 [Example 454] | – | 3.98 nM | 3.5 | < 0.1 µg/mL | – |
| Cc1nn2c(C3CC3)c(C(=O)N[C@H]3CCOc4ccccc43)cnc2c1-c1cccc(Cl)c1 [Example 455] | – | 6.31 nM | 4.13 | < 0.1 µg/mL | – |
| Cc1nn2c(C3CC3)c(C(=O)N[C@H]3CCOc4ccccc43)cnc2c1-c1cccc(F)c1 [Example 456] | – | 6.31 nM | 3.71 | < 0.1 µg/mL | – |
| Cc1nn2c(C3CC3)c(C(=O)N[C@H]3CCc4ccccc43)cnc2c1-c1cccc(N2CC(C#N)C2)c1 [Example 460] | – | 39.8 nM | 3.44 | < 10 µg/mL | – |
| Cc1nn2c(C3CC3)c(C(=O)N[C@H]3CCOc4ccccc43)cnc2c1-c1cccc(OC(F)(F)F)c1 [Example 462] | – | 6.31 nM | 4.47 | < 0.1 µg/mL | – |
| Cc1nn2c(C3CC3)c(C(=O)N[C@H]3CCOc4ccccc43)cnc2c1-c1ccc(F)cc1 [Example 463] | < 0.1 µg/mL | 7.94 nM | 3.62 | < 0.1 µg/mL | – |
| Cc1nn2c(C3CC3)c(C(=O)N[C@H]3CCOc4ccccc43)cnc2c1-c1cccc(N2CC(F)(F)C2)c1 [Example 464] | – | 3.16 nM | 3.92 | < 0.1 µg/mL | – |
| Cc1nn2c(C3CC3)c(C(=O)N[C@H]3CCc4ccccc43)cnc2c1-c1cccc(N2CC(F)C2)c1 [Example 466] | – | 10 nM | 3.85 | < 10 µg/mL | – |
| Cc1nn2c(C3CC3)c(C(=O)N[C@H]3CCOc4ccccc43)cnc2c1-c1cc(Cl)cc(Cl)c1 [Example 469] | – | 15.8 nM | 4.96 | < 0.1 µg/mL | – |
| Cc1nn2c(C3CC3)c(C(=O)N[C@H]3CCOc4ccccc43)cnc2c1-c1ccc(F)c(F)c1 [Example 471] | – | 3.98 nM | 3.86 | < 0.1 µg/mL | – |
| Cc1nn2c(C3CC3)c(C(=O)N[C@H]3CCOc4ccccc43)cnc2c1-c1cc(Cl)c(F)c(Cl)c1 [Example 476] | – | 6.31 nM | 4.95 | < 1 µg/mL | – |
| Cc1nn2c(N(C)C)c(C(=O)N[C@H]3CCOc4ccccc43)cnc2c1-c1cc(Cl)cc(Cl)c1 [Example 520] | – | 7.94 nM | 4.92 | < 0.1 µg/mL | – |
| Cc1nn2c(N3CCOCC3)c(C(=O)N[C@H]3CCOc4ccccc43)cnc2c1-c1cccc(Cl)c1F [Example 524] | < 0.1 µg/mL | 1.26 nM | 4.69 | < 0.1 µg/mL | – |
| Cc1nn2c(C3CC3)c(C(=O)N[C@H]3CCOc4ccccc43)cnc2c1-c1ccc(Cl)nc1 [Example 525] | – | 79.4 nM | 2.96 | < 10 µg/mL | – |
| Cc1nn2c(C3CC3)c(C(=O)N[C@H]3CCOc4ccccc43)cnc2c1-c1ccnc(N2CCOCC2)c1F [Example 527] | – | 31.6 nM | 2.96 | < 10 µg/mL | – |
| CC(=O)Nc1cc(-c2c(C)nn3c(C4CC4)c(C(=O)N[C@H]4CCOc5ccccc54)cnc23)ccn1 [Example 528] | – | 1260 nM | 1.69 | < 10 µg/mL | – |
| Cc1ccccc1-c1c(C)nn2c(N3CCOCC3)c(C(=O)N[C@H]3CCOc4ccccc43)cnc12 [Example 536] | – | 5.01 nM | 4.18 | < 0.1 µg/mL | – |
| Cc1nn2c(C3CC3)c(C(=O)N[C@H]3CCOc4ccccc43)cnc2c1-c1cc(F)cc(F)c1 [Example 537] | – | 5.01 nM | 3.99 | < 0.1 µg/mL | – |
